Test results: patent publication US20030216427A1, “Amine derivatives for the treatment of apoptosis” (priority 2000, published 2003)

What was measured:
male Wistar rats [1] = assay: Transient model of focal cerebral ischemia (transient middle cerebral artery occlusion); type: in vivo, rat; conditions: dose of 1 mg/kg (i.v.)
Excerpt: The compounds of the present invention were also subjected to the transient model of focal cerebral ischemia. The method used was adapted from Nagasawa and Kogure, Stroke, 20, 1037, 1989 as well as Zea Longa, Weinstein, Carlon and Cummins, Stroke, 20, 84, 1989.

gerbils = assay: Global ischemia in gerbils (in vivo); design: species or system gerbil; conditions: 30 mg/kg, 5 min carotid occlusion
Procedure: The ability of the amine compounds of formula I to protect cell death during a stroke event may be assessed using the following protocol:
Anesthesia: halothane or isoflurane (0.5-4%).
Sheaving of the gorge and incision of the skin.
The common carotid arteries (left and right) are freed from tissue.
Occlusion of the arteries using Bulldog microclamps during 5 min.
Disinfection of the surgery plan (Betadine®) and suture of the skin (Autoclip® or Michel's hooks).
Stabulation of the animals under heating lamp until awake.
Stabulation of the animals in the animalry in individual cages.
7 days after ischemia (Decapitation or overdose of pentobarbital).
Freezing of the brain in isopentane (−20° C.)
Slicing of the hippocampus using a cryo-microtome (20 μm).
Staining with cresyl violet and/or TUNEL method
Evaluation of the lesions (in CA1/CA2 subfields of the hippocampus)
Gerhard & Boast score modified or
Cell counting in the CA1/CA2
Microdissection of the cerebral structures
Parameters determined: DNA fragmentation, lactate, calcium penetration.
Analytical methods: ELISA, colorimetry, enzymology, radiometry.
Administration of the test article or the vehicle: 15 min after reperfusion (5-10 min after the recovery of the anesthesia).
50 animals : 5 groups of 10 (group A: control, groups B-D : test article at 3 doses and group E : reference compound (ketamine 3×120 mg/kg, ip or Orotic acid 3×300 mg/kg, ip).

male Wistar rats [2] = assay: Kainate-induced neuronal cell death in the rat hippocampus; type: in vivo; conditions: dose of 30 mg/kg (i.v.)
Procedure: The compounds of the present invention were also subjected to the model of kainate-induced neuronal cell death in the rat hippocampus. The method used was adapted from Gelowitz, Paterson, Pharmacol.Biochem.Behav., 62: 255-62 (1999), Magyar et al. Transm.Suppl., 52: 109-23 (1998) as well as Sperk et al, Brain Re., 338: 289-95 (1985). […] According to a preferred embodiment, the tested compounds display a protection rate of at least 25%, preferably of at least 40% at a dose of 30 mg/kg (i.v.)

[3] = tested on: Bid-induced Bax activation; assay: Release of cytochrome c triggered by Bid-induced Bax activation (mitochondria isolated from HeLa cells); type: biochemical; conditions: compound at a concentration of 5 μM, 10 nM recombinant Bid
Procedure: Concerning the Bid-induced activation of Bax leading to mitochondrial Cytochrome C release, it is referred to the description of Martinou et al. in The Journal of Cell Biology, Vol. 144, No. 5, Mar. 8, 1999, pages 891-901 as well as Eskes, Desagher, Antonsson and Martinou in Molecular and Cellular Biology, February 2000, p. 929-935, Vol. 20, No. 3. Mitochondria isolated from HeLa cells are incubated for 15 min at 30° C. in 100 μl of KCl buffer in the presence or absence of 10 nM recombinant Bid. […] Following incubation, mitochondria were centrifuged for 5 min at 13000 g at 4° C. and the supernatant is collected for cytochrome c analysis. Cytochrome c is detected by Western blotting. The cytochrome c bands are scanned and quantified using a Bio-Rad (GS-700 Imaging Densitometer).

[4] = tested on: Sympathetic neurons from superior cervical ganglia (SCG) of newborn rats; assay: Sympathetic neuron culture and survival assay; type: cell-based, rat; conditions: compound at 10 μM; 24 hours after cell death induction by anti NGF antibody, MTT
Procedure: Cell death is induced at day 4 after plating by exposing the culture to medium containing 10 µg/ml of anti NGF antibody (Boehringer Mannheim Corp., Indianapolis, Ind.) and no NGF or arabinosine, in the presence or absence of amino derivatives according to formula I. 24 hours after cell death induction, determination of cell viability is performed by incubation of the culture for 1 hour, at 37° C. in 0.5 mg/ml of 3-(4,5-dimethyl-thiazol-2-yl)2,5 diphenyl tetrazolium bromide (MTT). After incubation in MTT cells are re-suspended in DMSO, transferred to a 96 MTT plate and cell viability is evaluated by measuring optical density at 590nm.

recombinant Bax = target: T1, recombinant Bax (Homo sapiens, UniProt Q07812); assay: In vitro assay for cytochrome c release (mouse liver mitochondria incubated with recombinant Bax); type: biochemical; conditions: compound at a concentration of 10 μM, 200 nM recombinant Bax
T1 construct: Bax-α lacking 20 amino acids at the COOH-terminus; GST (cleaved yes); His; made in house; host or cells: Escherichia coli
Excerpt: Hunan Bax-α lacking 20 amino acids at the COOH-terminus is expressed as a GST fusion protein or a His-tagged protein in Escherichia coli, and the protein is purified from the soluble cell fraction. In brief, the GST-Bax fusion protein is applied to a glutathione-Sepha-rose column, and Bax was released by cleavage with thrombin (0.6U/mL). Bax is subsequently purified on heparin-Sepharose, followed by fast protein liquid chromatography (FPLC) Mono Q. His-tagged Bax is purified on a Ni-nitriloacetic acid-agarose column followed by FPLC MonoQ:
Mitochondria are isolated from mouse liver cells by differential centrifugation Cells are broken with a dounce homogenizer and the suspension is centrifuged at 2,000 g in an Eppendorf centrifuge at 4° C. This procedure is repeated until almost all the cells are broken. Supernatants from each step are pooled before centrifugation at 13,000 g at 4° C. for 10 min. […]
Mitochondria (30 μg) from mouse liver are incubated with 200 nM recombinant Bax in the presence of various compounds (5 μM) in 200 μL of KCl buffer for 20 min at 30° C. and are then centrifuged for 4 min at 13,000 g at 4° C. […] Antigen-antibody complexes are detected using horseradish peroxidase-conjugated goat anti-rabbit IgG and enhance chemi-luminescence detection reagents. The cytochrome c bands are scanned and quantified using a Bio-Rad (GS-700 Imaging Densitometer).

T1 sequence (Q07812 1-172 limits assumed): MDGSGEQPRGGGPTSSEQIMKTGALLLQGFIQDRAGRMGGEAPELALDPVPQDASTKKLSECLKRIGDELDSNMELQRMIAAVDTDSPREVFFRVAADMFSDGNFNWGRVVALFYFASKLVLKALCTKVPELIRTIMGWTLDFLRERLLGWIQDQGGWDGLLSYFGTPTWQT

## CCCCCCCCCCCCC(=O)N1CCCC[C@H]1C(=O)NCCCCCCN [Example 1, (S)-1-Tridecanoyl-piperidine-2-carboxylic acid (6-amino-hexyl)-amide]
Male Wistar rats [1]
  decrease in the cortex infarct volume: about 56%
gerbils
  protection rate of cell survival: about 45%
Male Wistar rats [2]
  protection rate: about 50%

## CCCCCCCCCCCCC(=O)N(C)[C@H](C(=O)NCCCCCCN)C(C)C [Example 22, (S)-N-(1-{[(6-aminohexyl)amino]carbonyl)-2-methylpropyl)-N-methyltridecanamide]
[3]
  inhibition of the cytochrome c release: about 95%

## CCCCCCCCCCCCC(=O)N1CCCC[C@@H]1C(=O)NCCCCCCN [Example 2, (R)-N-(6-aminohexyl)-1-tridecanoylpiperidine-2-carboxamide]
[4]
  neuronal survival rate: about 41%

## CCCCCCCCCCCCC(=O)N1CCC[C@@H]1C(=O)NCCCCCN [Example 139, (R)-N-(5-aminopentyl)-1-tridecanoylpyrrolidine-2-carboxamide]
gerbils
  protection rate of cell survival: ~55%

## CCCCCCCCCCCCC(=O)N1CCC[C@H]1C(=O)NCCCCCCN [Example 7, (S)-N-(6-aminohexyl)-1-tridecanoylpyrrolidine-2-carboxamide]
Recombinant Bax
  inhibition at 10 µM: ~88%
